Assay results from US8440206B2 (priority 2006, dated 2013).

System: CD8+ T cells
Format: cell-based, human

Sequence | #SFU
ELPQWLSANR | <10
RADEEQQQAL | 120
QTVEDEARRMW | 84
